Patent publication US20250032651A1, “[177LU] LUTETIUM-PSMA I&T COMPOSITION AND DOSIMETRY, KIT, METHOD OF MAKING, AND METHOD OF USING THEREOF” (Curium US LLC, priority 2022, published 2025)

Assay: Normal organ dosimetry Cycle 1: SPECT/CT, TIACs, OLINDA 2.2.3 absorbed radiation dose
Format: in vivo, human
Conditions: for Absorbed Dose, Mean / Absorbed Dose, max / Absorbed Dose, median / Absorbed Dose, min: Cycle 1, n = 26
Experimental: This Example presents the biodistribution, dosimetry, and pharmacokinetics (PK) results of a PK/Dosimetry sub-study performed as part of a Phase III trial. Twenty-seven (27) patients were administered a target activity of 7.4±10% GBq of ^177Lu-PSMA-I&T and underwent single photon emission computed tomography (SPECT)/computed tomography (CT) imaging at four timepoints (4 h, 24 h, 48 h, and 168 h). Image data was analysed to compute time-activity curves (TACs) and subsequently time-integrated activity coefficients (TIACs) in each organ of interest and in organs showing appreciable and meaningful ^177Lu-PSMA-I&T activity. Organ Level Internal Dose Assessment (OLINDA 2.2.3) was used to compute organ and whole body absorbed radiation doses for each patient.
All participating sites underwent a rigorous site setup process during which all dose calibrators, scanners, and gamma counters used in the sub-study were calibrated. Sites were allowed to enroll patients in the sub-study only after the completion and approval of all site setup processes by Invicro. Patients underwent SPECT/CT imaging, with anatomical coverage typically extending from the salivary glands to the pelvis, following the administration of a targeted 7.4±10% GBq of ^177Lu-PSMA-I&T at cycle 1. SPECT/CT imaging was performed at four timepoints: 4 h, 24 h, 48 h, and 168 h post-injection. Additionally, a subset of patients imaged at Cycle 1 (16 out of 27), were also imaged at Cycle 3 (Table 2).
The imaging data was analyzed using Invicro's VivoQuant software, a validated software used in a 21 CFR § 11-compliant workflow. The general quantification approach was based on the principles detailed in the Medical Internal Radiation Dose (MIRD) Pamphlet No. 16, No 23, and No 26 as appropriate.
Volume of interest (VOI) (kidneys, bladder, liver, lumbar vertebrae L2-L4, lacrimal glands, salivary glands [parotid and submandibular glands], and whole body) were delineated on each dataset by a trained image analyst. […] Organs were segmented either by drawing the entire contour of the organ, or by placing a sphere in a representative region of the organ and then multiplying by the organ's effective mass (based on patient's height and weight). Segmentation methods for each organ are specified in Table 3 and were consistently applied to each patient.
Clearance of the radiopharmaceutical was derived from a data-appropriate fit of each organ's TAC. Depending on the TAC's shape, the data was fitted with the sum of one, two, or three exponentials, or using a rise and fall model. Fitting was performed with in-house Python software. TIACs were calculated through analytical integration of the curve fit extrapolated to infinity. […] A whole-body TAC was derived from delineating the imaged body. The remainder activity was determined by subtracting the cumulative organ TIACs from the whole body TIAC.
Organ TIACs were input into OLINDA 2.2.3 for the computation of organ and whole-body absorbed doses, using International Commission on Radiological Protection (ICRP)-103 weighing factors. The ICRP-89 derived male phantom was used for dose estimation. Organs and body mass as defined by ICRP-89 were scaled based on height and mass using patient effective mass.^4 The voiding bladder model as implemented in OLINDA was used to determine bladder TIAC, assuming a voiding interval of 4 hours. The human alimentary tract model (HAT model) described in ICRP 100 and implemented in OLINDA was used to compute doses to the small intestine, right colon, left colon and rectum for patients showing clearance through the GI tract. The fraction of injected activity (fIA) cleared via the GI tract was determined by taking the peak fIA in the GI tract over all the imaging timepoints. […] The Red Marrow mass in L2-L4 was assumed to be 6.7% of the total red marrow mass.

[1] = Kidneys, 16 patients imaged at cycle 1 and 3
[2] = Lacrimal Glands (OLINDA sphere model), 16 patients imaged at cycle 1 and 3
[3] = Lacrimal Glands, N = 16, OLINDA sphere model
[4] = Left colon, 16 patients imaged at cycle 1 and 3
[5] = Liver, 16 patients imaged at cycle 1 and 3
[6] = Lungs, 16 patients imaged at cycle 1 and 3
[7] = Osteogenic cells, 16 patients imaged at cycle 1 and 3
[8] = Pancreas, 16 patients imaged at cycle 1 and 3

Question: With `O=C([O-])CC[C@H](NC(=O)N[C@@H](CCCCNC(=O)CCCCCCC(=O)NCCCC[C@@H](NC(=O)[C@@H](Cc1ccccc1)NC(=O)[C@@H](Cc1ccc(O)c(I)c1)NC(=O)CC[C@H](C(=O)[O-])N1CCN(CC(=O)[O-])CCN(CC(=O)[O-])CCN(CC(=O)[O-])CC1)C(=O)[O-])C(=O)[O-])C(=O)[O-].[177Lu+3].[H+].[H+].[H+].[H+].[H+]` [^177Lu-PSMA I&T, (3S,7S,26R,29R,32R,37R)-29-benzyl-32-(4-hydroxy-3-iodobenzyl)-5,13,20,28,31,34-hexaoxo-37-(4,7,10-tris(carboxymethyl)-1,4,7,10-tetraazacyclododecan-1-yl)-4,6,12,21,27,30,33-heptaazaheptatriacontane-1,3,7,26,37-pentacarboxylic acid; lutetium-177 (III)] as the compound, how does the “Absorbed Dose in Cycle 1, min” value (Heart wall, N = 16) read?
Answer: 0.00 Gy/GBq

Question: And the “Absorbed Dose in Cycle 1, Mean” value [1]?
Answer: 0.41 Gy/GBq

Question: What about the “Absorbed Dose in Cycle 1, max” value [1] of the same compound?
Answer: 0.81 Gy/GBq

Question: And the “Absorbed Dose in Cycle 1, min” value [1]?
Answer: 0.17 Gy/GBq

Question: What about the “Absorbed Dose, Mean” value (Kidneys) of the same compound?
Answer: 0.41 Gy/GBq

Question: What about the “Absorbed Dose, max” value (Kidneys) of the same compound?
Answer: 0.81 Gy/GBq

Question: And the “Absorbed Dose, median” value (Kidneys)?
Answer: 0.37 Gy/GBq

Question: And the “Absorbed Dose, min” value (Kidneys)?
Answer: 0.17 Gy/GBq

Question: And the “Absorbed Dose in Cycle 1, Mean” value (Kidneys, N = 16)?
Answer: 0.41 Gy/GBq

Question: What about the “Absorbed Dose in Cycle 1, max” value (Kidneys, N = 16) of the same compound?
Answer: 0.81 Gy/GBq

Question: What about the “Absorbed Dose in Cycle 1, min” value (Kidneys, N = 16) of the same compound?
Answer: 0.17 Gy/GBq

Question: And the “Absorbed Dose in Cycle 1, Mean” value [2]?
Answer: 0.39 Gy/GBq

Question: And the “Absorbed Dose in Cycle 1, max” value [2]?
Answer: 1.19 Gy/GBq

Question: And the “Absorbed Dose in Cycle 1, min” value [2]?
Answer: 0.04 Gy/GBq

Question: What about the “Absorbed Dose, Mean” value (Lacrimal Glands) of the same compound?
Answer: 0.40 Gy/GBq

Question: And the “Absorbed Dose, max” value (Lacrimal Glands)?
Answer: 1.19 Gy/GBq

Question: And the “Absorbed Dose, median” value (Lacrimal Glands)?
Answer: 0.26 Gy/GBq

Question: What about the “Absorbed Dose, min” value (Lacrimal Glands) of the same compound?
Answer: 0.04 Gy/GBq

Question: And the “Absorbed Dose in Cycle 1, Mean” value [3]?
Answer: 0.39 Gy/GBq

Question: And the “Absorbed Dose in Cycle 1, max” value [3]?
Answer: 1.19 Gy/GBq

Question: And the “Absorbed Dose in Cycle 1, min” value [3]?
Answer: 0.04 Gy/GBq

Question: What about the “Absorbed Dose in Cycle 1, Mean” value [4] of the same compound?
Answer: 0.52 Gy/GBq

Question: And the “Absorbed Dose in Cycle 1, max” value [4]?
Answer: 1.53 Gy/GBq

Question: And the “Absorbed Dose in Cycle 1, min” value [4]?
Answer: 0.01 Gy/GBq

Question: And the “Absorbed Dose, Mean” value (Left colon)?
Answer: 0.47 Gy/GBq

Question: And the “Absorbed Dose, max” value (Left colon)?
Answer: 1.53 Gy/GBq

Question: And the “Absorbed Dose, median” value (Left colon)?
Answer: 0.41 Gy/GBq

Question: And the “Absorbed Dose, min” value (Left colon)?
Answer: 0.01 Gy/GBq

Question: What about the “Absorbed Dose in Cycle 1, Mean” value (Left colon, N = 16) of the same compound?
Answer: 0.52 Gy/GBq

Question: What about the “Absorbed Dose in Cycle 1, max” value (Left colon, N = 16) of the same compound?
Answer: 1.53 Gy/GBq

Question: And the “Absorbed Dose in Cycle 1, min” value (Left colon, N = 16)?
Answer: 0.01 Gy/GBq

Question: And the “Absorbed Dose in Cycle 1, Mean” value [5]?
Answer: 0.04 Gy/GBq

Question: And the “Absorbed Dose in Cycle 1, max” value [5]?
Answer: 0.10 Gy/GBq

Question: What about the “Absorbed Dose in Cycle 1, min” value [5] of the same compound?
Answer: 0.01 Gy/GBq

Question: What about the “Absorbed Dose, Mean” value (Liver) of the same compound?
Answer: 0.04 Gy/GBq

Question: And the “Absorbed Dose, max” value (Liver)?
Answer: 0.10 Gy/GBq

Question: And the “Absorbed Dose, median” value (Liver)?
Answer: 0.03 Gy/GBq

Question: What about the “Absorbed Dose, min” value (Liver) of the same compound?
Answer: 0.01 Gy/GBq

Question: And the “Absorbed Dose in Cycle 1, Mean” value (Liver, N = 16)?
Answer: 0.04 Gy/GBq

Question: What about the “Absorbed Dose in Cycle 1, max” value (Liver, N = 16) of the same compound?
Answer: 0.10 Gy/GBq

Question: What about the “Absorbed Dose in Cycle 1, min” value (Liver, N = 16) of the same compound?
Answer: 0.01 Gy/GBq

Question: What about the “Absorbed Dose in Cycle 1, Mean” value [6] of the same compound?
Answer: 0.01 Gy/GBq

Question: What about the “Absorbed Dose in Cycle 1, max” value [6] of the same compound?
Answer: 0.07 Gy/GBq

Question: And the “Absorbed Dose in Cycle 1, min” value [6]?
Answer: 0.00 Gy/GBq

Question: What about the “Absorbed Dose, Mean” value (Lungs) of the same compound?
Answer: 0.01 Gy/GBq

Question: What about the “Absorbed Dose, max” value (Lungs) of the same compound?
Answer: 0.07 Gy/GBq

Question: What about the “Absorbed Dose, median” value (Lungs) of the same compound?
Answer: 0.01 Gy/GBq

Question: What about the “Absorbed Dose, min” value (Lungs) of the same compound?
Answer: 0.00 Gy/GBq

Question: What about the “Absorbed Dose in Cycle 1, Mean” value (Lungs, N = 16) of the same compound?
Answer: 0.01 Gy/GBq

Question: What about the “Absorbed Dose in Cycle 1, max” value (Lungs, N = 16) of the same compound?
Answer: 0.07 Gy/GBq

Question: And the “Absorbed Dose in Cycle 1, min” value (Lungs, N = 16)?
Answer: 0.00 Gy/GBq

Question: And the “Absorbed Dose in Cycle 1, Mean” value [7]?
Answer: 0.04 Gy/GBq

Question: And the “Absorbed Dose in Cycle 1, max” value [7]?
Answer: 0.19 Gy/GBq

Question: What about the “Absorbed Dose in Cycle 1, min” value [7] of the same compound?
Answer: 0.00 Gy/GBq

Question: And the “Absorbed Dose, Mean” value (Osteogenic cells)?
Answer: 0.05 Gy/GBq

Question: What about the “Absorbed Dose, max” value (Osteogenic cells) of the same compound?
Answer: 0.29 Gy/GBq

Question: And the “Absorbed Dose, median” value (Osteogenic cells)?
Answer: 0.02 Gy/GBq

Question: And the “Absorbed Dose, min” value (Osteogenic cells)?
Answer: 0.00 Gy/GBq

Question: What about the “Absorbed Dose in Cycle 1, Mean” value (Osteogenic cells, N = 16) of the same compound?
Answer: 0.04 Gy/GBq

Question: And the “Absorbed Dose in Cycle 1, max” value (Osteogenic cells, N = 16)?
Answer: 0.19 Gy/GBq

Question: What about the “Absorbed Dose in Cycle 1, min” value (Osteogenic cells, N = 16) of the same compound?
Answer: 0.00 Gy/GBq

Question: And the “Absorbed Dose in Cycle 1, Mean” value [8]?
Answer: 0.02 Gy/GBq

Question: And the “Absorbed Dose in Cycle 1, max” value [8]?
Answer: 0.07 Gy/GBq

Question: And the “Absorbed Dose in Cycle 1, min” value [8]?
Answer: 0.00 Gy/GBq

Question: What about the “Absorbed Dose, Mean” value (Pancreas) of the same compound?
Answer: 0.02 Gy/GBq

Question: And the “Absorbed Dose, max” value (Pancreas)?
Answer: 0.07 Gy/GBq

Question: And the “Absorbed Dose, median” value (Pancreas)?
Answer: 0.01 Gy/GBq
